Measurements published in US20260242391A1 (priority 2023, published 2026).

Assays:
HL-60 = HL-60 differentiation potency; type: cell-based; settings: Homo sapiens
in vitro = settings: human

COc1cc(CN[C@@H]2O[C@@H]3O[C@@]4(C)CC[C@H]5[C@H](C)CC[C@@H]([C@H]2C)[C@@]35OO4)ccn1 [Compound 50, (3R,5aS,6R,8aS, 9R,10R,12R, 12aR)-N-((2-methoxypyridin-4-yl)methyl)-3,6,9-trimethyldeca-hydro-12H-3,12-epoxy[1,2] dioxepino[4,3-i] isochromen-10-amine]
EC50 (HL-60): 2.32 µM
IC50 (in vitro): 4.88 µM

Cc1cc(CO[C@@H]2O[C@@H]3O[C@@]4(C)CC[C@H]5[C@H](C)CC[C@@H]([C@H]2C)[C@@]35OO4)ccc1C(=O)O [Compound 51, 2-methyl-4-((((3R,5aS,6R,8aS, 9R,10R,12R, 12aR)-3,6,9-trimethyldeca-hydro-12H-3,12-epoxy[1,2]dioxepino[4,3-i]isochromen-10-yl)oxy)methyl) benzoic acid]
EC50 (HL-60): 2.41 µM
IC50 (in vitro): > 20 µM

C[C@H]1[C@H](NC2CS(=O)(=O)C2)O[C@@H]2O[C@@]3(C)CC[C@H]4[C@H](C)CC[C@@H]1[C@@]24OO3 [Compound 52, 3-(((3R,5aS,6R,8aS, 9R,10R,12R, 12aR)-3,6,9-trimethyldeca-hydro-12H-3,12-epoxy[1,2]dioxepino[4,3-i]isochromen-10-yl)amino) thietane 1,1-dioxide]
EC50 (HL-60): 2.45 µM
IC50 (in vitro): 3.55 µM

C[C@H]1[C@H](OCCS(C)(=O)=O)O[C@@H]2O[C@@]3(C)CC[C@H]4[C@H](C)CC[C@@H]1[C@@]24OO3 [Compound 53, (3R,5aS,6R,8aS, 9R,10R,12R, 12aR)-3,6,9-trimethyl-10-(2-(methylsulfonyl)ethoxy)deca-hydro-12H-3,12-epoxy[1,2] dioxepino[4,3-i] isochromene]
EC50 (HL-60): 2.73 µM
IC50 (in vitro): > 20 µM

COc1cc(CO[C@@H]2O[C@@H]3O[C@@]4(C)CC[C@H]5[C@H](C)CC[C@@H]([C@H]2C)[C@@]35OO4)ccc1C(=O)O [Compound 54, 2-methoxy-4-((((3R,5aS,6R,8aS, 9R,10R,12R, 12aR)-3,6,9-trimethyldeca-hydro-12H-3,12-epoxy[1,2]dioxepino[4,3-i]isochromen-10-yl)oxy)methyl) benzoic acid]
EC50 (HL-60): 2.82 µM
IC50 (in vitro): > 20 µM

C[C@H]1[C@@H](OCC23CC(C(=O)O)(C2)C3)O[C@@H]2O[C@@]3(C)CC[C@H]4[C@H](C)CC[C@@H]1[C@@]24OO3 [Compound 55, 3-((((3R,5aS,6R,8aS, 9R,10S,12R, 12aR)-3,6,9-trimethyldeca-hydro-12H-3,12-epoxy[1,2]dioxepino[4,3-i]isochromen-10-yl)oxy)methyl) bicyclo[1.1.1] pentane-1-carboxylic acid]
EC50 (HL-60): 7.4 µM
IC50 (in vitro): > 20 µM

C[C@H]1[C@@H](Nc2cccc(F)c2)O[C@@H]2O[C@@]3(C)CC[C@H]4[C@H](C)CC[C@@H]1[C@@]24OO3 [Compound 56, (3R,5aS,6R,8aS, 9R,10S,12R, 12aR)-N-(3-fluorophenyl)-3,6,9-trimethyldeca-hydro-12H-3,12-epoxy[1,2] dioxepino[4,3-i] isochromen-10-amine]
EC50 (HL-60): 8.19 µM
IC50 (in vitro): 11 µM

C[C@H]1[C@H](N[C@@H](C)c2ccc(S(C)(=O)=O)cc2)O[C@@H]2O[C@@]3(C)CC[C@H]4[C@H](C)CC[C@@H]1[C@@]24OO3 [Compound 57, (3R,5aS,6R,8aS, 9R,10R,12R, 12aR)-3,6,9-trimethyl-N-((S)-1-(4-(methyl-sulfonyl)phenyl)ethyl)decahydro-12H-3,12-epoxy[1,2] dioxepino[4,3-i] isochromen-10-amine]
EC50 (HL-60): 8.49 µM
IC50 (in vitro): 9.89 µM

C[C@H]1[C@H](NCc2ccc(S(C)(=O)=O)cc2)O[C@@H]2O[C@@]3(C)CC[C@H]4[C@H](C)CC[C@@H]1[C@@]24OO3 [Compound 58, (3R,5aS,6R,8aS, 9R,10R,12R, 12aR)-3,6,9-trimethyl-N-(4-(methylsulfonyl)benzyl) decahydro-12H-3,12-epoxy[1,2] dioxepino[4,3-i] isochromen-10-amine]
EC50 (HL-60): 9.12 µM
IC50 (in vitro): 8.34 µM

C[C@H]1[C@H](NCCS(=O)(=O)N(C)C)O[C@@H]2O[C@@]3(C)CC[C@H]4[C@H](C)CC[C@@H]1[C@@]24OO3 [Compound 59, N,N-dimethyl-2-(((3R,5aS,6R, 8aS,9R,10R,12R, 12aR)-3,6,9-trimethyldeca-hydro-12H-3,12-epoxy[1,2]dioxepino[4,3-i]isochromen-10-yl)amino) ethane-1-sulfonamide]
EC50 (HL-60): 9.63 µM
IC50 (in vitro): 11 µM

C[C@H]1[C@H](N2CCC(C(=O)NC3COC3)CC2)O[C@@H]2O[C@@]3(C)CC[C@H]4[C@H](C)CC[C@@H]1[C@@]24OO3 [Compound 60, N-(oxetan-3-yl)-1-((3R,5aS, 6R,8aS,9R,10R, 12R,12aR)-3,6,9-trimethyldeca-hydro-12H-3,12-epoxy[1,2]dioxepino[4,3-i]isochromen-10-yl)piperidine-4-carboxamide]
EC50 (HL-60): 11.2 µM
IC50 (in vitro): 11.8 µM

C[C@H]1[C@H](OCc2ccc(C(=O)O)o2)O[C@@H]2O[C@@]3(C)CC[C@H]4[C@H](C)CC[C@@H]1[C@@]24OO3 [Compound 61, 5-((((3R,5aS,6R, 8aS,9R,10R,12R, 12aR)-3,6,9-trimethyldeca-hydro-12H-3,12-epoxy[1,2]dioxepino[4,3-i]isochromen-10-yl)oxy)methyl) furan-2-carboxylic acid]
EC50 (HL-60): 13.4 µM
IC50 (in vitro): > 20 µM

C[C@H]1[C@H](CCNS(C)(=O)=O)O[C@@H]2O[C@@]3(C)CC[C@H]4[C@H](C)CC[C@@H]1[C@@]24OO3 [Compound 62, N-(2-((3R,5aS,6R,8aS, 9R,10S,12R, 12aR)-3,6,9-trimethyldeca-hydro-12H-3,12-epoxy[1,2]dioxepino[4,3-i]isochromen-10-yl)ethyl) methane-sulfonamide]
EC50 (HL-60): 16.4 µM
IC50 (in vitro): > 20 µM

C[C@H]1[C@H](N2CCCCC2)O[C@@H]2O[C@@]3(C)CC[C@H]4[C@H](C)CC[C@@H]1[C@@]24OO3 [Compound 63, 1-((3R,5aS,6R,8aS, 9R,10R,12R, 12aR)-3,6,9-trimethyldeca-hydro-12H-3,12-epoxy[1,2]dioxepino[4,3-i]isochromen-10-yl)piperidine]
EC50 (HL-60): > 20 µM
IC50 (in vitro): > 20 µM

C[C@H]1[C@H](N2CCC(C(=O)O)CC2)O[C@@H]2O[C@@]3(C)CC[C@H]4[C@H](C)CC[C@@H]1[C@@]24OO3 [Compound 64, 1-((3R,5aS,6R,8aS, 9R,10R,12R, 12aR)-3,6,9-trimethyldeca-hydro-12H-3,12-epoxy[1,2]dioxepino[4,3-i]isochromen-10-yl)piperidine-4-carboxylic acid]
EC50 (HL-60): > 20 µM
IC50 (in vitro): > 20 µM

C[C@H]1[C@H](N2CCC(C(=O)NC3CS(=O)(=O)C3)CC2)O[C@@H]2O[C@@]3(C)CC[C@H]4[C@H](C)CC[C@@H]1[C@@]24OO3 [Compound 65, N-(1,1-dioxidothietan-3-yl)-1-((3R,5aS,6R,8aS, 9R,10R,12R, 12aR)-3,6,9-trimethyldeca-hydro-12H-3,12-epoxy[1,2]dioxepino[4,3-i]isochromen-10-yl)piperidine-4-carboxamide]
EC50 (HL-60): > 20 µM
IC50 (in vitro): > 20 µM

C[C@H]1[C@@H](CCN2CCC(C(=O)O)CC2)O[C@@H]2O[C@@]3(C)CC[C@H]4[C@H](C)CC[C@@H]1[C@@]24OO3 [Compound 66, 1-(2-((3R,5aS,6R, 8aS,9R,10R,12R, 12aR)-3,6,9-trimethyldeca-hydro-12H-3,12-epoxy[1,2]dioxepino[4,3-i]isochromen-10-yl)ethyl) piperidine-4-carboxylic acid]
EC50 (HL-60): > 20 µM
IC50 (in vitro): > 20 µM

CNC(=O)N1CCN([C@@H]2O[C@@H]3O[C@@]4(C)CC[C@H]5[C@H](C)CC[C@@H]([C@H]2C)[C@@]35OO4)CC1 [Compound 67, N-methyl-4-((3R,5aS,6R,8aS, 9R,10R,12R, 12aR)-3,6,9-trimethyldeca-hydro-12H-3,12-epoxy[1,2]dioxepino[4,3-i]isochromen-10-yl)piperazine-1-carboxamide]
EC50 (HL-60): > 20 µM
IC50 (in vitro): > 20 µM

C[C@H]1[C@@H](CCN2CC(C(=O)O)C2)O[C@@H]2O[C@@]3(C)CC[C@H]4[C@H](C)CC[C@@H]1[C@@]24OO3 [Compound 68, 1-(2-((3R,5aS,6R,8aS, 9R,10R,12R, 12aR)-3,6,9-trimethyldeca-hydro-12H-3,12-epoxy[1,2]dioxepino[4,3-i]isochromen-10-yl)ethyl) azetidine-3-carboxylic acid]
EC50 (HL-60): > 20 µM
IC50 (in vitro): > 20 µM

C[C@H]1[C@H](N2CC[C@@H](C(=O)O)C2)O[C@@H]2O[C@@]3(C)CC[C@H]4[C@H](C)CC[C@@H]1[C@@]24OO3 [Compound 69, (R)-1-((3R,5aS,6R,8aS, 9R,10R,12R, 12aR)-3,6,9-trimethyldeca-hydro-12H-3,12-epoxy[1,2]dioxepino[4,3-i]isochromen-10-yl)pyrrolidine-3-carboxylic acid]
EC50 (HL-60): > 20 µM
IC50 (in vitro): > 20 µM

COC(=O)[C@@H]1CCN(CC[C@H]2O[C@@H]3O[C@@]4(C)CC[C@H]5[C@H](C)CC[C@@H]([C@H]2C)[C@@]35OO4)C1 [Compound 70, methyl (R)-1-(2-((3R,5aS,6R,8aS, 9R,10R,12R, 12aR)-3,6,9-trimethyldeca-hydro-12H-3,12-epoxy[1,2]dioxepino[4,3-i]isochromen-10-yl)ethyl) pyrrolidine-3-carboxylate]
EC50 (HL-60): > 20 µM
IC50 (in vitro): > 20 µM

C[C@H]1[C@@H](Oc2ccc(CCCCC(=O)O)cc2)O[C@@H]2O[C@@]3(C)CC[C@H]4[C@H](C)CC[C@@H]1[C@@]24OO3 [Compound 72, 5-(4-(((3R,5aS, 6R,8aS,9R,10S, 12R,12aR)-3,6,9-trimethyldeca-hydro-12H-3,12-epoxy[1,2]dioxepino[4,3-i]isochromen-10-yl)oxy)phenyl) pentanoic acid]
EC50 (HL-60): 0.113 µM
IC50 (in vitro): 0.777 µM

C[C@H]1[C@@H](Oc2ccc(-c3nn[nH]n3)cc2)O[C@@H]2O[C@@]3(C)CC[C@H]4[C@H](C)CC[C@@H]1[C@@]24OO3 [Compound 73, 5-(4-(((3R,5aS,6R, 8aS,9R,10S,12R, 12aR)-3,6,9-trimethyldeca-hydro-12H-3,12-epoxy[1,2]dioxepino[4,3-i]isochromen-10-yl)oxy)phenyl)-2H-tetrazole]
EC50 (HL-60): 0.0346 µM
IC50 (in vitro): 0.0319 µM

Cc1cc(C(=O)O)ccc1CO[C@H]1O[C@@H]2O[C@@]3(C)CC[C@H]4[C@H](C)CC[C@@H]([C@H]1C)[C@@]24OO3 [Compound 74, 3-methyl-4-((((3R,5aS,6R,8aS, 9R,10S,12R, 12aR)-3,6,9-trimethyldeca-hydro-12H-3,12-epoxy[1,2]dioxepino[4,3-i]isochromen-10-yl)oxy)methyl) benzoic acid]
EC50 (HL-60): 0.865 µM
IC50 (in vitro): > 20 µM
